Read-outs that look alike come from different tables or passages of the source.
Columns and labels:
[1] = system: isolated duodenum of rabbit, contractions caused by acetylcholine; assay: Spasmolytic activity, neurotrope versus acetylcholine, isolated duodenum (Magnus)
From the text: (§1) The spasmolytic activities are known by means of the technique of R. Magnus (Arch. Ges. Physiol., 1904, 102, 123) on the isolated duodenum of rabbits. The spasmolytic neurotropes inhibit the contractions of the organ caused by acetylcholine, while the musculotropes prevent the spasms induced by barium chloride. The EC 50 expressed in mg/litre are collected in the following Table where EC denotes "Effective concentration".

[2] = system: isolated duodenum of rabbit, spasms induced by barium chloride; assay: Spasmolytic activity, musculotrope versus BaCl2, isolated duodenum (Magnus)
From the text: as §1

[3] = Acute toxicity in mice, intravenous and oral (LD50); type: in vivo; details: mouse, in vivo
From the text: The acute toxicities of the compounds according to the invention have been determined CD 1 mice (Charles RIVER) by intravenous and oral methods. The LD50 calculated by the quantal cumulative method of J. J. Reed and H. Muench (Amer. J. Hyg. 1938, 27, 493) are collected in the following Table: […]

isolated rabbit heart = assay: Coronaro-dilatatory activity, isolated heart (Langendorff modified by Anderson); details: for coronaro-dilatatory activity (in words): isolated rabbit heart
From the text: The technique of Langendorff, modified by F. E. Anderson, (J. Pharmacol. exp. Therap., 1948, 91, 135) using isolated rabbit heart permits the coronaro-dilatatory activity of the products to be studied. In this text, the cardiac perfusion liquid contains 0.5 UI/1 of posthypophysis. The results are expressed in the percentage variation of the coronary flow after affusion of the product to be tested, compared with the initial flow.

[4] = system: abdominal spasms caused in mice by 2-phenyl-1,4-benzoquinone; assay: Analgesic activity: abdominal spasms caused by intraperitoneal 2-phenyl-1,4-benzoquinone (P.B.Q.); type: in vivo; details: Mus musculus; mice, oral; read-out: Analgesic activity P.B.Q. AD 50
From the text: The analgesic activities have been investigated with respect to abdominal spasms caused in mice by the intraperitoneal injection of 2-phenyl-1,4-benzoquinone according to E. Siegmund, E. Cadmus and G. Lu, Proc. Soc. exp. Biol. Med., 1957, 95, 729-731. The central antiserotonin properties have been determined by the "Head-twitch" technique in mice according to S. J. Corne, R. W. Pickering and B. T. Warner, Brit. J. Pharmacol., 1963, 20, 106-120. In this test, the antiserotonin products inhibit the sudden shaking of the head induced in mice by 5-hydroxy-tryptophan, the biological precursor of serotonin.

[5] = intravenous, read-out: Acute toxicity to mice LD 50, intravenous
[6] = oral, read-out: Acute toxicity to mice LD 50, orally

## CCN(CC)CCNc1nc(N(C)C)nc(Cl)c1SC [Example 1, 2-dimethylamino-4-(2'-diethylamine)ethylamino-5-methylthio-6-chloropyrimidine]
[1]
  Spasmolytic activity EC 50, neurotrope versus acetylcholine: 5.50 µg/mL
[2]
  Spasmolytic activity EC 50, musculotrope versus BaCl2: 1.40 µg/mL
[3]; [5]
  LD50: 53 mg/kg
[3]; [6]
  LD50: 200 mg/kg

## CCN(CC)CCNc1nc(N(C)Cc2ccccc2)nc(Cl)c1SC [Example 4, 2-N-methyl-N-benzylamino-4-(2'-diethylamino)-ethylamino-5-methylthio-6-chloro-pyrimidine]
[1]
  Spasmolytic activity EC 50, neurotrope versus acetylcholine: 0.30 µg/mL
  neurotropic spasmolytic activity (in words): necessary to call attention
[2]
  Spasmolytic activity EC 50, musculotrope versus BaCl2: 0.06 µg/mL
  musculotropic EC 50: less than 0.1 mg/liter
  musculotropic spasmolytic activity (in words): quite remarkable activities
[3]; [5]
  LD50: 45 mg/kg
[3]; [6]
  LD50: 525 mg/kg
Isolated rabbit heart; dose 0.003 mg
  Increase of the coronary flow: 8%
Isolated rabbit heart; dose 0.01 mg
  Increase of the coronary flow: 28%
Isolated rabbit heart; dose 0.03 mg
  Increase of the coronary flow: 41%
Isolated rabbit heart; dose 0.10 mg
  Increase of the coronary flow: 135%
Isolated rabbit heart
  coronaro-dilatatory activity (in words): interesting coronaro-dilatatory activities

## CSc1c(Cl)nc(N(C)C)nc1NCCN(C)C [Example 8, 2-dimethylamino-4-(2'-dimethylamino)-ethylamino-5-methylthio-6-chloro-pyrimidine]
[1]
  Spasmolytic activity EC 50, neurotrope versus acetylcholine: 4.90 µg/mL
[2]
  Spasmolytic activity EC 50, musculotrope versus BaCl2: 2.80 µg/mL
[3]; [5]
  LD50: 57 mg/kg
[3]; [6]
  LD50: 525 mg/kg

## CSc1c(Cl)nc(N2CCOCC2)nc1NCCN(C)C [Example 9, 2-morpholino-4-(2'-dimethylamino)-ethyl-amino-5-methylthio-6-chloro-pyrimidine]
[1]
  Spasmolytic activity EC 50, neurotrope versus acetylcholine: 3.00 µg/mL
[2]
  Spasmolytic activity EC 50, musculotrope versus BaCl2: 1.90 µg/mL
[3]; [6]
  LD50: 400 mg/kg

## CCOC(=O)CN(C)c1nc(Cl)c(SC)c(NCCN(C)C)n1 [Example 10, 2-N-methyl-N-(ethoxycarbonylmethyl)-amino-4-(2'-dimethylamino)-ethylamino-5-methylthio-6-chloro-pyrimidine]
[1]
  Spasmolytic activity EC 50, neurotrope versus acetylcholine: 0.50 µg/mL
  neurotropic spasmolytic activity (in words): necessary to call attention
[2]
  Spasmolytic activity EC 50, musculotrope versus BaCl2: 0.50 µg/mL
[3]; [5]
  LD50: 79 mg/kg
[3]; [6]
  LD50: 900 mg/kg

## CSc1c(Cl)nc(N(C)Cc2ccccc2)nc1NCCN(C(C)C)C(C)C [Example 11, 2-N-methyl-N-benzylamino-4-(2'-di-isopropyl-amino)-ethylamino-5-methylthio-6-chloro-pyrimidine]
[1]
  Spasmolytic activity EC 50, neurotrope versus acetylcholine: 3.50 µg/mL
[2]
  Spasmolytic activity EC 50, musculotrope versus BaCl2: 0.02 µg/mL
  musculotropic EC 50: less than 0.1 mg/liter
  musculotropic spasmolytic activity (in words): quite remarkable activities
[3]; [5]
  LD50: 60 mg/kg
[3]; [6]
  LD50: 675 mg/kg
Isolated rabbit heart; dose 0.001 mg
  Increase of the coronary flow: 168%
Isolated rabbit heart; dose 0.003 mg
  Increase of the coronary flow: 172%
Isolated rabbit heart
  coronaro-dilatatory activity (in words): interesting coronaro-dilatatory activities

## CSc1c(Cl)nc(N(C)c2ccc(C)cc2)nc1NCCN(C(C)C)C(C)C [Example 14, 2-N-methyl-N(4-methyl-phenyl)amino-4-(2'-diisopropylamino)-ethylamino-5-methylthio-6-chloro-pyrimidine]
[1]
  Spasmolytic activity EC 50, neurotrope versus acetylcholine: 0.08 µg/mL
  neurotropic spasmolytic activity (in words): necessary to call attention
[2]
  Spasmolytic activity EC 50, musculotrope versus BaCl2: 0.04 µg/mL
  musculotropic EC 50: less than 0.1 mg/liter
  musculotropic spasmolytic activity (in words): quite remarkable activities
[3]; [5]
  LD50: 92 mg/kg
[3]; [6]
  LD50: 900 mg/kg
Isolated rabbit heart; dose 0.003 mg
  Increase of the coronary flow: 104%
Isolated rabbit heart; dose 0.01 mg
  Increase of the coronary flow: 140%
Isolated rabbit heart; dose 0.03 mg
  Increase of the coronary flow: 168%
Isolated rabbit heart
  coronaro-dilatatory activity (in words): interesting coronaro-dilatatory activities

## CCOC(=O)CN(C)c1nc(Cl)c(SC)c(NCCN(C(C)C)C(C)C)n1 [Example 15, 2-N-methyl-N-(ethoxycarbonylmethyl)-amino-4-(2'-diisopropylamino)-ethylamino-5-methyl-thio-6-chloro-pyrimidine]
[2]
  Spasmolytic activity EC 50, musculotrope versus BaCl2: 0.05 µg/mL
  musculotropic EC 50: less than 0.1 mg/liter
  musculotropic spasmolytic activity (in words): quite remarkable activities
[3]; [5]
  LD50: 63 mg/kg
[3]; [6]
  LD50: > 900 mg/kg
Isolated rabbit heart; dose 0.003 mg
  Increase of the coronary flow: 16%
Isolated rabbit heart; dose 0.01 mg
  Increase of the coronary flow: 24%
Isolated rabbit heart; dose 0.03 mg
  Increase of the coronary flow: 44%
Isolated rabbit heart; dose 0.10 mg
  Increase of the coronary flow: 28%
Isolated rabbit heart
  coronaro-dilatatory activity (in words): interesting coronaro-dilatatory activities

## CCN(CC)CCNc1nc(N(C)c2ccc(C)cc2)nc(Cl)c1SC [Example 19, 2-N-methyl-N(4-methyl-phenyl)amino-4-(2'-diethylamino)-ethylamino-5-methyl-thio-6-chloro-pyrimidine]
[3]; [6]
  LD50: ~675 mg/kg

## CCN(CC)CCNc1nc(N(C)c2ccc(OC)c(OC)c2)nc(Cl)c1SC [Example 20, 2-N-methyl-N(3,4-dimethoxy-phenyl)amino-4-(2'-diethylamino)-ethylamino-5-methylthio-6-chloro-pyrimidine]
[3]; [6]
  LD50: 400 mg/kg

## COc1ccc(N(C)c2nc(Cl)c(SC)c(NCCN(C(C)C)C(C)C)n2)cc1OC [Example 21, 2-N-methyl-N(3,4-dimethoxy-phenyl)amino-4-(2'-diisopropylamino)-ethylamino-5-methylthio-6-chloro-pyrimidine]
[3]; [6]
  LD50: ~600 mg/kg

## CSc1c(Cl)nc(N(C)c2ccc(Cl)cc2)nc1NCCN1CC(C)OC(C)C1 (centres unmarked) [Example 22, 2-N-methyl-N-(4-chloro-phenyl)amino-4-(2'-2,6-dimethyl-morpholino)-ethylamino-5-methylthio-6-chloro-pyrimidine]
[3]; [6]
  LD50: > 900 mg/kg

## CSc1c(NCCN(C)C)nc(N(C)C)nc1OCc1cccnc1 [Example 23, 2-N-dimethyl-amino-4-(2'-dimethylamino)-ethylamino-5-methyl-thio-6-(3-pyridyl)-methoxy-pyrimidine]
[1]
  Spasmolytic activity EC 50, neurotrope versus acetylcholine: 8.60 µg/mL
[2]
  Spasmolytic activity EC 50, musculotrope versus BaCl2: 1.00 µg/mL
[3]; [5]
  LD50: 22 mg/kg
[3]; [6]
  LD50: 175 mg/kg

## CCN(CC)CCNc1nc(N(C)c2ccc(Cl)cc2)nc(OC)c1SC [Example 25, 2-N-methyl-N(4-chloro-phenyl)amino-4-(2'-diethylamino)-ethylamino-5-methylthio-6-methoxy-pyrimidine]
[3]; [6]
  LD50: ~600 mg/kg

## COc1nc(N(C)c2ccccc2)nc(NCCN(C)C)c1SC [Example 26, 2-N-methyl-N-phenyl-amino-4-(2'-dimethylamino)-ethylamino-5-methylthio-6-methoxy-pyrimidine]
[3]; [5]
  LD50: 70 mg/kg
[3]; [6]
  LD50: 225 mg/kg
[4]
  ED50: 65 mg/kg

## COc1ccc(N(C)c2nc(NCCN(C(C)C)C(C)C)c(SC)c(OC)n2)cc1OC [Example 28, 2-N-methyl-N-(3,4-dimethoxy-phenyl)-amino-4-(2'-diisopropyl-amino)-ethyl-amino-5-methylthio-6-methoxy-pyrimidine]
[3]; [6]
  LD50: ~200 mg/kg

## COc1nc(N2CCCCC2)nc(NCCN(C(C)C)C(C)C)c1SC [Example 29, 2-piperidino-4-(2'-diisopropyl-amino)-ethylamino-5-methylthio-6-methoxy-pyrimidine]
[3]; [6]
  LD50: ~200 mg/kg

## CCCCOc1nc(N(C)Cc2ccccc2)nc(NCCN(C(C)C)C(C)C)c1SC [Example 31, 2-N-methyl-2-N-benzylamino-4-(2'-di-isopropyl-amino)-ethylamino-5-methylthio-6-butoxy-pyrimidine]
[3]; [6]
  LD50: ~675 mg/kg

## CCCCOc1nc(N(C)c2ccccc2)nc(NCCN(C(C)C)C(C)C)c1SC [Example 32, 2-N-methyl-N-phenylamino-4-(2'-diiso-propyl-amino)-ethylamino-5-methyl-thio-6-butoxy-pyrimidine]
[3]; [6]
  LD50: ~525 mg/kg

— patent publication US3968214A, “5-Methylthio-pyrimidine vasodilators” (Produits Chimiques Ugine Kuhlmann, priority 1973, dated 1976)
